What was measured:
[1] = system: pancreas; assay: Yoda1 pancreatic duct infusion pancreatitis model; format: in vivo, mouse; conditions: Yoda1 0.4 mg/kg infused into the pancreatic duct
Description: Laparotomy surgery was performed both in pancreatic partial duct ligation- and retrograde pancreatic duct infusion-mediated pancreatitis experiments as previously described by Romac et al., Nat. Commun. 9(1):1715 (2018). Yoda1 at a dose of 0.4 mg/kg in 50 μL 1.1% dimethylsulfoxide, 4.8% ethanol, and 94.1% buffered saline was injected. In Yoda1-mediated pancreatitis, the midportion of the pancreas (about 100-125 mg) was carefully excised and used for biochemical assays and histological staining. Histological scoring was evaluated from the entire section. Partial PDL was performed as previously described. Using a stereo microscope, the tail region of the pancreas was visualized, and the main pancreatic duct was ligated carefully with 6-0 Prolene suture without damaging the left portal vein that separates the splenic lobe and gastroduodenal part of the pancreas. […]
Serum amylase concentration was measured by a colorimetric method after reaction with substrate using the Phadebas Amylase Test Tablet (Magle Life Sciences) and the Tecan-infinite M200 Pro plate reader.
MPO was measured using previously described methods with modifications. […] To calculate the mU of MPO/mg of protein, the protein concentrations of the supernatants were measured using the Micro BCA Protein Assay Kit (Thermo Fisher Scientific; 23235). […]

[2] = system: pancreatic acini; assay: Cell death assays of pancreatic acini (LDH release, Live/Dead, live-cell imaging); format: cell-based
Description: The viability of pancreatic acini with Yoda1 and CCK treatments was analyzed using the Live/Dead Cell Imaging Kit (Thermo Fisher Scientific, catalog R37601) or the LDH Release Assay Kit (Promega, catalog G1780).

[3] = system: Yes-associated protein (YAP); assay: YAP nuclear localization in mouse stellate cells (immunostaining); format: cell-based; conditions: Yoda1 25 μM for 4 hr
Description: Murine stellate cells from wild type or Piezo1^GFAPKO mice were activated with 25 μM Yoda 1 for 4 hours before fixation. Immunostaining staining was performed as described in Swain et al. JCI Insight 7:e158288 (2022). Yap antibody was diluted at 1/100.

[4] = biological target: T1, Piezo1 (Mus musculus, UniProt E2JF22); assay: Calcium imaging of Piezo1-mediated [Ca2+]i in mouse PSCs; format: cell-based
T1 construct: endogenous in cells; host or cells: freshly isolated mouse pancreatic acini (WT = Piezo1 fl/fl on a C57BL/6J background)
T1 sequence (E2JF22 whole entry): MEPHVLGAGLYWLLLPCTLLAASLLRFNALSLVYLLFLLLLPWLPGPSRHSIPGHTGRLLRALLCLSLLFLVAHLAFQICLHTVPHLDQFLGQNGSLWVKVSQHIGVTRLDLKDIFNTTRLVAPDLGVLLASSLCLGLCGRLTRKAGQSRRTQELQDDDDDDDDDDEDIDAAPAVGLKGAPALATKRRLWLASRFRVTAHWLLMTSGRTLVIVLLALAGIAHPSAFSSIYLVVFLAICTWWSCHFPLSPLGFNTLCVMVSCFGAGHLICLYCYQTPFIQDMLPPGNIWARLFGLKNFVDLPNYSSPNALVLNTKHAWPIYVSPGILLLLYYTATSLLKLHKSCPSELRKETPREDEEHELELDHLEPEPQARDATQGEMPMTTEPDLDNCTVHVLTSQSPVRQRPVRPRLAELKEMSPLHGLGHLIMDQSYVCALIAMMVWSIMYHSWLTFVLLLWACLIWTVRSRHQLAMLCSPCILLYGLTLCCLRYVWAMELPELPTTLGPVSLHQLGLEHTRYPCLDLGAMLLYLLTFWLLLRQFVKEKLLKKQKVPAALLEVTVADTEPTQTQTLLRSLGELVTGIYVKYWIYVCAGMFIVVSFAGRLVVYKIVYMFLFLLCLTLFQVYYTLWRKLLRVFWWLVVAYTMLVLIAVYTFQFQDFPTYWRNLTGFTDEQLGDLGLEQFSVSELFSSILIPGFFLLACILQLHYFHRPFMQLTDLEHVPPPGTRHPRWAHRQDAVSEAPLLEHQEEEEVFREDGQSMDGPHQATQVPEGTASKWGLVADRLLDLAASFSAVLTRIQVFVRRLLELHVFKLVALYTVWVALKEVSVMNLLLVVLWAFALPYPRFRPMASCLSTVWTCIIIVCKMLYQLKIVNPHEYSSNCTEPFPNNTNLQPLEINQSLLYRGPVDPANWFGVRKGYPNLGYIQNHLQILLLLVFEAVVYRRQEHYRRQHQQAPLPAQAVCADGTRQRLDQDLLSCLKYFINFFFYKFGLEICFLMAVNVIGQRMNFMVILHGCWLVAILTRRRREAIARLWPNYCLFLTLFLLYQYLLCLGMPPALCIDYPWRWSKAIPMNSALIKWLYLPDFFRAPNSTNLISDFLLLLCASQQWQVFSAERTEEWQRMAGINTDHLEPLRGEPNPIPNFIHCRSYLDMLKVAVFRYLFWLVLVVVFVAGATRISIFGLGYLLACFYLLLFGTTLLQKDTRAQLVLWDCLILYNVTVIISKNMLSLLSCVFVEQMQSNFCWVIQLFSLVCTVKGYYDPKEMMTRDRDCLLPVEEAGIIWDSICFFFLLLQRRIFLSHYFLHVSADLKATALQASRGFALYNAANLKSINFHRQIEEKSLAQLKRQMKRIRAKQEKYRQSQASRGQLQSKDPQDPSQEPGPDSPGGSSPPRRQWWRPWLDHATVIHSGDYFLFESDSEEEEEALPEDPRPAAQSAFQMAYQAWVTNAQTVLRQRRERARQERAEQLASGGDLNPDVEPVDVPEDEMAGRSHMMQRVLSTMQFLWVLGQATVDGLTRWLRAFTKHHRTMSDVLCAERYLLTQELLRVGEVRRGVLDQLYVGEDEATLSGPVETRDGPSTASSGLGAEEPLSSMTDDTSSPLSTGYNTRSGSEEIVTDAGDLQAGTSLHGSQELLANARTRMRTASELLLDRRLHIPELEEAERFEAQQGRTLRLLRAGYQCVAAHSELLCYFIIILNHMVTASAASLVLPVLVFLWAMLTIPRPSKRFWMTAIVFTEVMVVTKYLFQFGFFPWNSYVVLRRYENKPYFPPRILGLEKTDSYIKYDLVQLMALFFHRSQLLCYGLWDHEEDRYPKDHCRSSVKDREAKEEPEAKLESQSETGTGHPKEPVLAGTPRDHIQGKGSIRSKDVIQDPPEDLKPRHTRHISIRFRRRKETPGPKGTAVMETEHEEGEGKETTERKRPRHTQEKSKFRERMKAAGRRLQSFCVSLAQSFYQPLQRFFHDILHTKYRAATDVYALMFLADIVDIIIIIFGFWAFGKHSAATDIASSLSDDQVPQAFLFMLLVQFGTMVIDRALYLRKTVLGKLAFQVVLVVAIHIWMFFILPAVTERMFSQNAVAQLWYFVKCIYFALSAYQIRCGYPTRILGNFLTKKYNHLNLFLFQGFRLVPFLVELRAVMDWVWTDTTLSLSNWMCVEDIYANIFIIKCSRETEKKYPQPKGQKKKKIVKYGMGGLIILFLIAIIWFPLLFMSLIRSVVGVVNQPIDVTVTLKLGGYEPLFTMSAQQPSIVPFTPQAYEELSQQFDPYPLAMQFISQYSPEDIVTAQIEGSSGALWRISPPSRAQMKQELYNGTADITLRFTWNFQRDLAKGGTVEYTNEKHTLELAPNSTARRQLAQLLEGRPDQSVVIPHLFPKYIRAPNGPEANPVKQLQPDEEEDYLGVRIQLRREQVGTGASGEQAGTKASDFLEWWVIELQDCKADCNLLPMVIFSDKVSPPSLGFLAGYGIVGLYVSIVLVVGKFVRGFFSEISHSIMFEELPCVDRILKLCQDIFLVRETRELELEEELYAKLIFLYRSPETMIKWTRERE
Description: Mouse and human PSCs were isolated using collagenase digestion. Modified Krebs Henseleit Buffer (KHB) solution (100 mL) was prepared as previously described by Romac et al., Nat. Commun. 9(1):1715 (2018). Pancreatic tissue was digested with 2 mg of collagenase NB 8 (SERVA, catalog 17456) dissolved in 10 mL of modified KHB solution containing 1 mg soybean trypsin inhibitor (SBTI 1-S; Millipore Sigma, catalog T9003) and 20 mg BSA (Thermo Fisher Scientific; BP1600-100). Digestion solution (5 mL) was used to inflate the pancreas. Pancreas with 5 mL of digestion solution was incubated in a shaking water bath for 10 minutes at 37° C. The solution was then discarded. The pancreas tissue was cut into small pieces and digested with fresh 5 mL digestion buffer. Tissue was incubated in a shaking water bath for 40 minutes at 37° C. The cells were then separated from tissue by pipetting up-down with a 10 mL pipette and passed sequentially through a 70 μm and a 40 μm cell strainer. The filtrate was centrifuged at 150×g for 3 minutes at room temperature. The cells were washed with 10 mL Leibovitz's media (Thermo Fisher Scientific, catalog 11415-064), passed through a 20 μm filter, and centrifuged at 80×g for 3 minutes at room temperature. The supernate was removed, and isolated stellate cells were plated on a thin-layered Matrigel-coated glass bottom culture plate (MatTek, P35G-0-14-C). Before plating the cells, Matrigel solution (Corning, catalog 354234) at a ratio of 1.5:100 DMEM/F12 (Thermo Fisher Scientific, catalog 11330-032) was poured onto the culture plate and incubated for 2 hr at 37° C. to form a thin layer of Matrigel coating. Matrigel mixture was removed, and the plate was washed with PBS before cells were plated. Cell culture media, DMEM/F12 with 5% FBS was used for mouse stellate cells. Fresh, human pancreatic tissue was digested with collagenase as described above with modifications. Collagenase (2.5 mg) in 10 mL of modified KHB solution was used for digestion. The digested tissues were filtered through a 100 μm cell strainer. The cells were cultured with DMEM/F12 with 10% FBS in a Matrigel-coated plate. After 24 hr, the cell media was replaced with fresh media to remove unattached and dead cells. After 2 days, cells were immunostained for GFAP and used for experiments. Perinuclear fat droplets were stained with BODIPY 493/503 (4,4-Difluoro-1,3,5,7,8-Pentamethyl-4-Bora-3a,4a-Diaza-s-Indacene; Invitrogen, catalog D3922) to confirm stellate cell quiescence. The cell viability following Yoda1 treatment was analyzed using the Live/Dead cell imaging kit (Thermo Fisher Scientific, catalog R37601). RNAs were isolated using the RiboPure Kit (Invitrogen, catalog AM1924) according to manufacturer's instructions.
Fluid shear stress and mechanical pushing applied to stellate cells were achieved as previously described by Wang et al., J. Clin. Invest. 126(12): 4527-4536 (2016). Parallel-plate fluid flow chambers (μ-Slide I 0.4 Luer, or μ-Slide I 0.2 Luer from Ibidi) were used for fluid shear stress experiments. The fluid shear stress (T) was calculated using the formula: τ=η×[…] φ for μ-Slide I 0.4 Luer and τ=η×330.4 φ for μ-Slide I 0.2 Luer, where r represents viscosity of the medium and φ represents flow rate (according to the manufacturer's instructions, Ibidi). Mechanical pushing was achieved by applying a blunt borosilicate glass pipette once to the cell membrane with a deflection of 2-3 μm for 1 second using a micromanipulator (World Precision Instruments).
Calcium 6-QF (Molecular Devices) dye was used for live-cell calcium imaging as described by Romac et al., Nat. Commun. 9(1):1715 (2018). Cells were imaged in HBSS buffer with 2 mM Ca^2+. Faintly and highly fluorescent loaded cells were excluded from analysis. […]

## Clc1cccc(Cl)c1CSc1nnc(-c2cnccn2)s1 [Yoda1]
[1]
  pancreatitis in TRPV4-KO mice: did not cause pancreatitis in TRPV4-KO mice
[1]; WT mice
  pancreatitis parameters (pancreatic edema, serum amylase, pancreatic MPO, histological scoring): increased all pancreatitis parameters measured
[2]; Yoda1 50 μM + CCK 1 nM, WT acini
  acinar cell death, both Yoda1 and CCK vs individual application: acinar cell death was greater
[2]; Yoda1 50 μM, WT acini
  acinar cell morphology by live-cell imaging: caused swelling of WT pancreatic acinar cells and release of zymogen granules from the basolateral surface and gradually ruptured the cell membrane
[2]; Yoda1, Piezo1aci-KO acini
  response of acinar cells from Piezo1aci-KO mice (live-cell imaging): did not respond to Yoda1
[3]
  YAP nuclear localization in stellate cells from Piezo1GFAP-KO mice: No changes were observed
[3]; wild-type stellate cells, preliminary
  YAP nuclear localization: increases YAP nuclear localization
[4]; Yoda1 25 μM, Piezo1GFAP-KO
  Yoda1-stimulated [Ca2+]i increase in Piezo1-deleted PSCs: absent in Piezo1-deleted PSCs
[4]; mouse PSCs
  [Ca2+]i response to Yoda1: dose-dependent increases in [Ca^2+]i elevation

Source: US20250352615A1, “COMPOSITIONS AND METHODS FOR THE MODULATION OF PIEZO1 AND TRPV4” (Duke University, priority 2021, published 2025)
